Results taken from patent US20200400567A1, “FUSION POLYPEPTIDE” (PEKING UNIVERSITY, priority 2017, published 2020).
“And” between values parts separate entries of the source, which are not always exact repeats. Equal entries are not always repeated. “Also recorded” adds a separate entry of the source. Where two headings read alike, the source gives them in different places. Blank lines part the entries; values can stand above or below the compound they belong to.

Experiments:
[1] = test system: human acetylcholine receptor M3R subtype; assay: GRAB-ACh sensor fluorescence response to ACh, drug perfusion in HEK293T cells; format: cell-based
Protocol: After DNA encoding specific GRAB sensor was introduced into cells by transfection, fluorescence imaging combined with perfusion experiment was. The imaging capture of HEK293T cells was performed using an Olympus IX81 inverted microscope, 40×NA: 1.35 oil lens, 475/28 excitation light filter, and 515LP emission light filter. The optical signal was collected by a Zyla sCMOS DG-152V-Cle FI camera (Andor), and Lambda DG-4 from Sutter Instuments company was used as a fluorescent light source. The exposure time was set to less than 50 ms and the acquisition frequency was 5 seconds. The entire imaging system was overall controlled by micromanager software.
The detection of the response of the GRAB sensor to the ligand (ΔF/F0) was performed using a drug perfusion method. The cells were placed in a standard physiological solution, and the formula thereof is: […]
The pH of the physiological solution was adjusted to about 7.4, and the small molecule drug was diluted with a part of the physiological solution to formulate solutions of respective concentrations of the small molecule ligand. […] Unless explicitly specified, the concentration of isoproterenol (ISO) for perfusion was 2 μM, and the concentration of acetylcholine for perfusion was 100 μM.
The perfusion system was equipped on a microscope, including a solution-introduced system made of syringe for injection, a multi-way valve, an imaging workbench and a suction pump. During the perfusion process, the imaging workbench was placed above the objective lens of the inverted microscope, and then the slide on which cell plated were placed in the workbench. Perfusion of different drugs were performed by controlling the switches of different pipes. In order to control the level of the solution in the workbench, the perfusion speed was set to one drop or so per second. After each drug treatment, the cells were washed with a physiological solution for more than five minutes to ensure that there were no residual drugs that will affect subsequent experiments. After the end of each experiment, the perfusion pipe and the workbench were cleaned with 75% ethanol three times to ensure that the residual drugs and impurities were fully washed away.
Fluorescence imaging data was processed using ImageJ software. For the performance of GRAB sensors in HEK293T cells and neurons, the fluorescence of entire cell body was selected as the data processing region. For living Drosophila imaging, fluorescence images on the same Z axis were analyzed by ImageJ software. The change in the fluorescence signal was indicated by its relative difference. The signal of background area without the expression of the sensor was first subtracted from the fluorescence signal, so as to obtain the real expression of the intensity of the fluorescent protein. Then, by calculating the fluorescence value F after adding the drug and the average fluorescence value F0 before adding, the relative fluorescence change ΔF/F=(F−F0)/F0 was obtained as the fluorescence response of the sensor to a specific drug. The change of ΔF/F0 with time was further plotted by Origin 8.6 software.
Based on GRAB-ACh 1.0, this peptide linker was optimized. First, based on a flexible amino acid (glycine, alanine), the peptide segment was screened for optimal length. The specific strategy was to change the length of the peptide linkers at the N-terminus and C-terminus from 0 to 5 amino acids, respectively, and to randomly combine the N-terminus with C-terminus to obtain all possible permutations. Fusion protein expression vectors containing various arrangements were expressed in HEK293T cells and subjected to perfusion experiments.

human HTR2C receptor = format: cell-based; conditions: for agonist-induced change of GRAB-5-HT2.1 fluorescence signal: GRAB-5-HT2.1 in HEK293T cells; for antagonism of serotonin-induced increase of GRAB-5-HT2.1 fluorescence signal: antagonist added after serotonin
human ADRA2A receptor = format: cell-based
Protocol: The perfusion system was set on a microscope, and including a solution-introduced system, an imaging cell, and a suction pump. During the perfusion process, the imaging cell was placed above the objective lens of the inverted microscope, and the slide with cultured cells was placed in the cell. The perfusion experiments of different drugs were performed by controlling the switches of the different pipes of the solution-introduced system. The perfusion speed was set to one drop or so per second. In order to ensure the stability of the focal plane, the liquid level was kept constant at all times, and the flow rate of each solution was adjusted accordingly. The aspiration speed was adjusted to maintain the liquid level in the cell over the slide.
The region of interest (ROI) and background area were selected manually prior to the perfusion experiment. The exposure time was set to less than 50 ms and the acquisition frequency was 5 seconds. The solution used for the perfusion was a physiological solution 4k (pH 7.3-7.4), which was used to formulate the drug to the desired concentration. The running time of the program was set to no more than 5 min. After using 4k to balance and stabilize the cells for about 60-90 s, the cells were perfused with drug for 60 s, and then washed with 4k. The excitation light for green fluorescent protein was 488 nm, and for red fluorescent protein was 568 nm. The laser intensity was adjusted according to the working state of the laser and the expression level of the cells.
After the end of the program, the time-fluorescence intensity data sheet was exported. The background was subtracted from the ROI to get the corresponding fluorescence value Ft, and the average value of the fluorescence value before adding the drug was used as the starting fluorescence F0 to calculate
The detection of the response of the GRAB sensor to the ligand (ΔF/F0) was performed by drug perfusion. The cells were maintained in a standard physiological solution, and the formula thereof is: […]
Fluorescence imaging data was processed using ImageJ software. For the fluorescence performance of GRAB sensors in HEK293T cells and neurons, the entire cell body was selected as the data processing region. The change in the fluorescence signal was usually indicated by its relative intensity change. The background area without the expression of the sensor was first subtracted from the fluorescence signal, so as to obtain the true expression intensity of the fluorescent protein.

human DRD2 receptor = assay: GRAB-GDA3.0 fluorescence response in HEK293T cells, drug perfusion; format: cell-based
From the text: There are 5 subtypes of human dopamine receptors in the body, which are named DRD1-DRD5. For constructing a fluorescent sensor, the receptors were screened preliminarily by inserting a fluorescent protein at any position in the third intracellular loop of the receptor. […] Specifically, for the third intracellular loop of the human DRD2 receptor, the insertion sites were set every 15 amino acids. Human DRD2 receptors inserted with circular permutated fluorescent proteins at different positions were expressed in HEK293T cells, and drug perfusion experiments were conducted with dopamine. […] After the positions sensitive to conformational change were determined, the surrounding amino acid sites thereof were further screened. The sites surrounding the amino acid position 252 at N-terminus and the sites surrounding the amino acid position 357 at the C-terminus were combined and different sensors were constructed. The sensors were expressed in HEK293T cells and subjected to drug perfusion experiments with dopamine. […] The peptide linkers were GG at the N-terminus and GGAAA at the C-terminus.

[2] = test system: GRAB-GDA3.0 signal in mushroom body (MB); assay: Odor-stimulated GRAB-GDA3.0 signal in mushroom body, in vivo two-photon imaging; set-up: species or system Drosophila; conditions: 10 μM antagonist in imaging solution, n=6
Protocol: Drosophila were kept in a 25-degree incubator with a standard medium. […] The adult Drosophila to be tested were transferred to a new culture tube within 0-2 days after emergence, and left at room temperature for 8-12 days. Before the imaging, the Drosophila were first fixed in a small dish, and then the square skull part near the eye was surgically removed to expose part of the brain. The adipose tissue and air sacs near the antennal lobes to be imaged were surgically removed to prevent interference with the fluorescent signal. In order to further reduce the degradation of image quality caused by the movement of Drosophila during the imaging, surgical forceps were used to cut the muscles underneath its halter. Throughout the dissection and imaging procedures, the brain of Drosophila was kept in a pre-chilled physiological solution, and the formula thereof is as follows: […]
Drosophila imaging was performed using an Olympus two-photon microscope, including Olympus BX61 WI microscope, 25×NA: 1.05 water lens, and Ti:Sapphire laser mode-locked laser for two-photon excitation. For GRAB sensor imaging experiments, the wavelength of the […] was set to 950 nm in order to successfully excite the fluorescent protein to produce fluorescence. The odor molecule isoamyl acetate (IA) used for stimulating Drosophila was purchased from Sigma, and was diluted in mineral oil at a ratio of 1:100. In the experiment, the isoamyl acetate was further diluted 5-40 times by mixing with air. The air mixed with odor molecules was provided at a position about 1 cm away from the tentacles of the Drosophila through a cavity about 1 cm wide on the experimental table. The odor molecule of different concentrations was tested by controlling the airflow. Each imaging cycle was 17.8 seconds, of which 5 to 10 seconds was the time for providing specific odor molecules. After the imaging experiment for odor function, the imaging area was scanned layer by layer with high resolution setting to obtain the distribution information of the olfactory bulb, which was later identified based on the information of olfactory bulb distribution at the antennal lobe reported in the literature.
The transgenic Drosophila UAS-GRAB-GDA3.0 was constructed to express the GRAB-GDA3.0 sensor in specific cells, driven by the corresponding GAL4 strain. First, GRAB-GDA3.0 was expressed in dopaminergic neurons (DAN) in all Drosophila, and the response induced by odor (isoamyl acetate) was examined by in vivo two-photon imaging (FIG. 39A).
A pharmacological study was performed on GRAB-GDA3.0.
The rate of GDA signal attenuation between normal Drosophila and Drosophila with reduced DAT expression was compared (this is the experiment of gene level research using DAT-RNAi described later). In DAN, the dopamine transporter (DAT) is located in the presynaptic membrane and […] DA intermittently and cyclically from the synapse. DAT-RNAi was used to inhibit DAT expression in DAN (FIG. 40G).

[3] = test system: human acetylcholine receptor M3R subtype; assay: GRAB-ACh 2.0 kinetics, rapid local perfusion with high-speed line scanning; format: cell-based
Protocol: For the detection of GRAB sensor kinetics, a local drug delivery system was used for the experiment. The experiment was performed using an Olympus upright microscope BX51, wherein a 40×NA: 0.80 water lens was used for imaging, and a 710M camera (DVC) was used for image acquisition. The drug delivery system was controlled by ROE-200 (from Sutter instruments company), and the position of the drug delivery needle was controlled by the MPS-1 operating lever. For the dynamic characterization experiment of the sensor, the imaging was processed using a frequency of 50 HZ (with a resolution of 768×484 pixels) and a surface element partition of 2×2.
The Journal of pharmacology and experimental therapeutics 330, 660-668 (2009)) reduced the fluorescence signal in GRAB-ACh 2.0 expressing cells perfused with 100 μM ACh, with a smaller time constant of 762±75 ms (FIGS. 14b-c, right panel).
Target sequence in this assay (as listed by the source): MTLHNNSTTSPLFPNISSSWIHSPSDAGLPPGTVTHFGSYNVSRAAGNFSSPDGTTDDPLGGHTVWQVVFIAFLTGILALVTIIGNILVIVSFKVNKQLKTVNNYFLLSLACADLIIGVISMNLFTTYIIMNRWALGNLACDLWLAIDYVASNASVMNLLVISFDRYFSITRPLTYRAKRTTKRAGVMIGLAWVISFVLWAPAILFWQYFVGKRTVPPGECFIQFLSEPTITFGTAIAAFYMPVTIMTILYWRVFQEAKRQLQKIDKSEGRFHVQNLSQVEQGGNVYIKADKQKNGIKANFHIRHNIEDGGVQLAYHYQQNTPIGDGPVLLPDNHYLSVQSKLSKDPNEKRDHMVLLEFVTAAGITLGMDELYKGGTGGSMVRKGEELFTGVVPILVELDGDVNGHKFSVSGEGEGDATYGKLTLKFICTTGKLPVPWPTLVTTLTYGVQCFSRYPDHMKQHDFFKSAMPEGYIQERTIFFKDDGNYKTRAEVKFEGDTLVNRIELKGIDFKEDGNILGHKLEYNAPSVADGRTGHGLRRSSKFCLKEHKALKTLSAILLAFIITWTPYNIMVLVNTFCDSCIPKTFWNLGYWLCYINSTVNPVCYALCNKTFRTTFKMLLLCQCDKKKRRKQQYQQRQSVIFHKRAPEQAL

Compound: CCCN(CCC)CC1CCCCN1CCNC(=O)N1c2ccccc2C(=O)Nc2cccnc21 (centres unmarked) [AF-DX384]
effect of M3R antagonist on ACh-induced increase of fluorescence ([1]; GRAB-ACh 2.0 in HEK293T cell): completely blocked

Compound: CC(N)Cc1c[nH]c2ccc(OCc3cccs3)cc12 (centres unmarked) [BWT23C83]
agonist-induced change of GRAB-5-HT2.1 fluorescence signal (human HTR2C receptor): cannot cause the change; also recorded: cannot change the fluorescent signal

Compound: CN1CCN(c2nc3cc(C(F)(F)F)ccc3n3cccc23)CC1.O=C(O)/C=C\C(=O)O.O=C(O)/C=C\C(=O)O [CGS12066B]
agonist-induced change of GRAB-5-HT2.1 fluorescence signal (human HTR2C receptor): cannot cause the change; also recorded: cannot change the fluorescent signal

Compound: Clc1cccc(COc2cncc(N3CCNCC3)n2)c1 [CP809]
agonist-induced change of GRAB-5-HT2.1 fluorescence signal (human HTR2C receptor): can cause the fluorescence signal change; also recorded: can induce changes in fluorescent signal

Compound: CNC[C@H](O)c1ccc(O)c(O)c1 [Epi, Epinephrine]
activation of GRAB-NE2.1 fluorescence signal by ligand (human ADRA2A receptor): can activate
fluorescent signal change of GRAB-NE2.0 to ligand (human ADRA2A receptor): exhibits a fluorescent signal change

Compound: Nc1nc2c(ncn2[C@@H]2O[C@H](COP(=O)(O)OP(=O)(O)OP(O)(O)=S)[C@@H](O)[C@H]2O)c(=O)[nH]1 [GTPγS]
effect of Gαi inhibition on concentration-dependent curve of GRAB-NE2.0 to NE (human ADRA2A receptor; PTX co-transfection or GTPγS with digitonin): did not change the concentration-dependent curve

Compound: O=C(CCCN1CCC(O)(c2ccc(Cl)cc2)CC1)c1ccc(F)cc1 [Haloperidol]
activation or block of GRAB-GDA3.0 (human DRD2 receptor): blocked; also recorded: inhibited
effect on odor (IA)-stimulated GDA signal in MB β' lobe ([2]; listed as halo): can be blocked
effect on odor (IA)-stimulated GDA signal in MB β' lobe ([2]; listed as haloperidol): completely blocked

Compound: CC(C)NCC(O)c1ccc(O)c(O)c1 (centres unmarked) [ISO, Isoproterenol]
fluorescent signal change of GRAB-NE2.0 to ligand (human ADRA2A receptor; GRAB-NE2.0, saturated concentration): no response
activation of GRAB-NE2.1 fluorescence signal by ligand (human ADRA2A receptor; cells expressing GRAB-NE2.1): cannot

Compound: NC[C@H](O)c1ccc(O)c(O)c1 [NE, Norepinephrine]
activation of GRAB-NE2.1 fluorescence signal by ligand (human ADRA2A receptor): can activate
fluorescent signal change of GRAB-NE2.0 to ligand (human ADRA2A receptor): exhibits a fluorescent signal change

Compound: COc1cc(OC)c(C(=O)CCCCN2CCC3(CC2)NC(=O)NC3=O)cc1NS(=O)(=O)c1ccc(C(F)(F)F)cc1 [RS102221]
antagonism of serotonin-induced increase of GRAB-5-HT2.1 fluorescence signal (human HTR2C receptor): can antagonize; also recorded: can inhibit

Compound: Cc1cc(NC(=O)Nc2ccc3c(ccn3C)c2)sn1 [SB204741]
antagonism of serotonin-induced increase of GRAB-5-HT2.1 fluorescence signal (human HTR2C receptor): cannot antagonize; also recorded: failed to inhibit

Compound: NCCc1ccc(O)c(O)c1 [dopamine, Dopamine]
activation or block of GRAB-GDA3.0 (human DRD2 receptor; HEK293T cells): activated

Compound: NC1=NCC2c3ccccc3Cc3ccccc3N12 (centres unmarked) [epinastine]
effect on odor (IA)-stimulated GDA signal in MB β' lobe [2]: cannot be blocked; also recorded: failed to be blocked

time constant of fluorescence increase ([3]; ACh perfusion, single scan): 185 ms
time constant of fluorescence decrease ([3]; Tio perfusion, single scan): 696 ms
average on time constant ([3]; local ACh perfusion, single exponential fit, n=18): 279.4 ± 32.6 ms and 280 ± 32 ms
average off time constant ([3]; local antagonist perfusion in 100 μM ACh, n=11): 762.3 ± 74.9 ms and 762 ± 75 ms
EC50 ([1]; ACh 10 nM to 100 μM, Boltzmann fit, n=4): ~700 nM
pEC50 ([1]; dose-dependent response to ACh): 6.12 ± 0.11
Compound: GRAB-ACh 2.0: GRAB-ACh variant with GG-APSVA peptide linkers, SEQ ID NO: 16
ΔF/F0 peak response ([1]; 100 μM ACh perfusion, HEK293T cells): ~100% and 90.12±1.74% and 94.0±3.0% and 90%
ΔF/F0 response ([1]; ACh (100 μM), second round screening, HEK293T cells): ~0.9
